In ChEMBL document CHEMBL5518159, “Thiazole-based analogues as potential antibacterial agents against methicillin-resistant Staphylococcus aureus (MRSA) and their SAR elucidation” (Eur J Med Chem, 2023):
Converted amounts (≈) assume the structure as drawn.

Experiments:
Staphylococcus aureus [1] = assay: Antibacterial activity against methicillin-resistant Staphylococcus aureus assessed as inhibition of bacterial growth measured after 24 hrs by broth micro-dilution method; type: functional
Staphylococcus aureus [2] = assay: Antimicrobial activity against methicillin-resistant Staphylococcus aureus assessed as inhibition of microbial growth incubated for 16 hrs by microdilution method; type: functional, organism-based
Staphylococcus aureus [3] = assay: Antibacterial activity against methicillin-resistant Staphylococcus aureus ATCC 43300 assessed as bacterial growth inhibition incubated for 24 hrs by broth dilution method; type: functional
Staphylococcus aureus [4] = assay: Antibacterial activity against methicillin-resistant Staphylococcus aureus ATCC 43300 assessed as reduction in bacterial growth by CLSI protocol based broth microdilution method; type: functional
Staphylococcus aureus [5] = assay: Antibacterial activity against clinical isolate Methicillin resistant Staphylococcus aureus 2658 RCMB assessed as reduction in microbial growth incubated for 16 to 24 hrs by CLSI-based Muller Hinton broth based microdilution method; type: functional; conditions: time 16-24 hrs
Staphylococcus aureus [6] = assay: Antibacterial activity against Methicillin-resistant Staphylococcus aureus AUMC 261 assessed as bacterial growth inhibition incubated for 24 hrs by broth microdilution analysis; type: functional
Staphylococcus aureus [7] = assay: Antibacterial activity against Methicillin-resistant Staphylococcus aureus assessed as reduction of microbial growth by Muller Hinton broth based dilution assay; type: functional
Staphylococcus aureus [8] = assay: Antibacterial activity against Methicillin-sensitive Staphylococcus aureus ATCC 6538 assessed as reduction in microbial growth; type: functional
Escherichia coli [9] = assay: Antibacterial activity against Escherichia coli ATCC 35210 assessed as reduction in bacterial growth by broth microdilution method; type: functional
Pseudomonas aeruginosa = assay: Antibacterial activity against Pseudomonas aeruginosa assessed as reduction in bacterial growth by broth microdilution method; type: functional
Escherichia coli [10] = assay: Antibiofilm activity against Escherichia coli ATCC 25922 assessed as reduction in biofilm formation at 50 uM incubated for 24 hrs by crystal violet staining based analysis relative to control; type: functional; parameters: scale not given: the % may be the effect or the level left
Escherichia coli [11] = assay: Antibacterial activity against Escherichia coli ATCC 25922 assessed as reduction in bacterial growth incubated for 18 to 24 hrs by broth microdilution method; type: functional; conditions: time 18-24 hrs
Staphylococcus aureus [12] = assay: Antibacterial activity against Methicillin-resistant Staphylococcus aureus […] assessed as reduction in microbial growth incubated for 18 to 24 hrs by broth micro-dilution method; type: functional; conditions: time 18-24 hrs
Staphylococcus aureus [13] = assay: Antibacterial activity against Methicillin-sensitive Staphylococcus aureus ATCC 25923 assessed as reduction in microbial growth by CLSI based broth microdilution method; type: functional
Staphylococcus aureus [14] = assay: Antibacterial activity against Methicillin-resistant Staphylococcus aureus ATCC 43300 assessed as reduction in bacterial growth measured for 24 hrs by CLSI based broth microdilution method; type: functional
Staphylococcus aureus [15] = assay: Antibacterial activity against Methicillin-sensitive Staphylococcus aureus ATCC 25923 assessed as reduction in bacterial growth incubated for 24 hrs by CLSI based broth microdilution method; type: functional
Staphylococcus aureus [16] = assay: Antibacterial activity against vancomycin-resistant Staphylococcus aureus assessed as bacterial growth inhibition incubated for 18 to 24 hrs by CLSI-based microdilution method; type: functional; conditions: time 18-24 hrs
Staphylococcus aureus [17] = assay: Antibacterial activity against methicillin-resistant Staphylococcus aureus ATCC 33592 assessed as reduction in microbial growth incubated for 16 to 20 hrs by CLSI based two-fold serial dilution method; type: functional; conditions: time 16-20 hrs
Staphylococcus aureus [18] = assay: Antibacterial activity against […] Staphylococcus aureus ATCC 6538 assessed as bacterial growth inhibition incubated for 24 hrs by broth micro-dilution method; type: functional
Staphylococcus aureus [19] = assay: Antibacterial activity against methicillin-resistant Staphylococcus aureus assessed as reduction in microbial growth by CLSI based broth microdilution method; type: functional
Staphylococcus aureus [20] = assay: Antibacterial activity against […] Staphylococcus aureus ATCC 29213 assessed as reduction in bacterial growth incubated for 16 to 20 hrs by CLSI based two-fold serial dilution method; type: functional; conditions: time 16-20 hrs
DNA gyrase = DNA gyrase (Staphylococcus aureus, UniProt P0A0K8+P20831); assay: Inhibition of Staphylococcus aureus DNA gyrase incubated for 30 mins by fluorescence based analysis; type: protein-complex assay
Staphylococcus aureus [21] = assay: Antibacterial activity against Staphylococcus aureus ATCC 43300 assessed as microbial inhibition incubated for 24 hrs by broth micro-dilution method; type: functional

DNA gyrase, sequence (P0A0K8 whole entry): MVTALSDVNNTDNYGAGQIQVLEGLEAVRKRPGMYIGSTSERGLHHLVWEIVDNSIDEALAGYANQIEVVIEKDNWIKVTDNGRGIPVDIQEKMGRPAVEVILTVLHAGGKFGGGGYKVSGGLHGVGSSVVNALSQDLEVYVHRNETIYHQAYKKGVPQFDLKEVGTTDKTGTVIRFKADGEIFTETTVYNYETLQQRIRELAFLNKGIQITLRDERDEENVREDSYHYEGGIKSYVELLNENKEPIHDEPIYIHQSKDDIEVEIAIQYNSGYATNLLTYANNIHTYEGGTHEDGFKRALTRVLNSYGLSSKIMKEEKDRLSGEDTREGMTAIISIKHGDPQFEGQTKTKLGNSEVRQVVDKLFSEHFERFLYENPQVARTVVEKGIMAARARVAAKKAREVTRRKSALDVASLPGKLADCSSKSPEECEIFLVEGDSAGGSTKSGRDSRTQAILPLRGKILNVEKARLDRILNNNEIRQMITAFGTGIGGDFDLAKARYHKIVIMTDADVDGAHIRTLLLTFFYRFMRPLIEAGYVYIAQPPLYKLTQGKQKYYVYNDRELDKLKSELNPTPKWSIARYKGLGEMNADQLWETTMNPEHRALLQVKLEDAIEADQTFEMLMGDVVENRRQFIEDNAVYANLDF
DNA gyrase, sequence (P20831 whole entry): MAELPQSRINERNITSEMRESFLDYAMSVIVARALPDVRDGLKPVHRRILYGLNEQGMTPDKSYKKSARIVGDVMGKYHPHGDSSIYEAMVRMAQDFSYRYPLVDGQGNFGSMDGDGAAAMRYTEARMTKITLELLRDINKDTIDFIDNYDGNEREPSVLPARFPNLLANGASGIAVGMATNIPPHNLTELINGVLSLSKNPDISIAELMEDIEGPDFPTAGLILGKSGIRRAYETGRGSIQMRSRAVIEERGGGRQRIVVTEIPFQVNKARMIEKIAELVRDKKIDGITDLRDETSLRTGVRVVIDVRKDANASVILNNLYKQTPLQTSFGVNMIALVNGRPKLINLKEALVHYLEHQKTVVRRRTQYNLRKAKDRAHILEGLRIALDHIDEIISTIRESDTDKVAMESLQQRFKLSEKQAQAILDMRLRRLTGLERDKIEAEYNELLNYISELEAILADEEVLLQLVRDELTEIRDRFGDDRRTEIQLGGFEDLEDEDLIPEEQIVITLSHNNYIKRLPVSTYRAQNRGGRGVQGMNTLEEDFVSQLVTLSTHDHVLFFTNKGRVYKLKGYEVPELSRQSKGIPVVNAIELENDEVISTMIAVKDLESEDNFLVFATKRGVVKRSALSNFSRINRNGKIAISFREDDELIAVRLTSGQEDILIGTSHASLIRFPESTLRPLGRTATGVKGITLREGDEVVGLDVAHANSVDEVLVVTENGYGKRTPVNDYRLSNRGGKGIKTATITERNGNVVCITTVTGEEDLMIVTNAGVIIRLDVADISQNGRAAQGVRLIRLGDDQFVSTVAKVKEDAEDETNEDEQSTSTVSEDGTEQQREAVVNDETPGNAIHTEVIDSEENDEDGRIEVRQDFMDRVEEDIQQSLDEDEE

Cc1cnc(/C=c2\[nH]c(=O)/c(=C\c3cccc(Br)c3)s2)s1
MIC (Staphylococcus aureus [1]): 40 µg/mL (≈ 105 µM)

CO/N=C(/COc1ccc2c(C)cc(=O)oc2c1)c1nccs1
IC50 (Staphylococcus aureus [2]): 1 µg/mL

Cc1ccc(C2SCC(=O)N2c2nc3ccc(OC(F)(F)F)cc3s2)cc1 (configuration not stated)
MBC (Staphylococcus aureus [3]): 120 µg/mL (≈ 292 µM) | MIC (Staphylococcus aureus [4]): 250 µg/mL (≈ 609 µM)

Cc1nc(-c2ccc3ccccc3c2)sc1-c1nnc(NC(=N)N2CCN(C)CC2)o1
MIC (Staphylococcus aureus [5]): 1.9 µg/mL

O=C1CSC(c2c(F)cccc2F)N1c1nc2ccc(OC(F)(F)F)cc2s1 (configuration not stated)
MBC (Staphylococcus aureus [3]): 120 µg/mL (≈ 278 µM) | MIC (Staphylococcus aureus [4]): 250 µg/mL (≈ 578 µM)

O=C(O)c1cn(C2CC2)c2cc(N3CCN(C(=O)CN4C(=O)S/C(=C\c5ccc([N+](=O)[O-])cc5)C4=O)CC3)c(F)cc2c1=O
MIC (Staphylococcus aureus [6]): 2.88 µg/mL (≈ 4.63 µM)

COc1ccc(/C=C(\Oc2ccc3c(CN(CCO)CCO)cc(=O)oc3c2)C(=O)c2nccs2)cc1
MIC (Staphylococcus aureus [7]): 2 µg/mL

O=C1CSC(c2ccc(O)cc2)N1c1nc2ccc(OC(F)(F)F)cc2s1 (configuration not stated)
MBC (Staphylococcus aureus [3]): 120 µg/mL (≈ 291 µM) | MIC (Staphylococcus aureus [4]): 250 µg/mL (≈ 606 µM)

COc1cc(CCN)c(-c2csc(-c3ccc(O)cc3)n2)cc1OC
MIC (Staphylococcus aureus [8]): 700 µg/mL | MIC (Escherichia coli [9]): < 230 µg/mL | MIC (Pseudomonas aeruginosa): < 230 µg/mL

CCOC1=NC(=N/N=C2\C(=O)Nc3ccc(Br)cc32)/S/C1=N/Nc1ccccc1
Activity (Escherichia coli [10]): 90% | MIC (Escherichia coli [11]): 4 µg/mL (≈ 8.49 µM) | MIC (Staphylococcus aureus [12]): 8 µg/mL

CC(=O)c1sc(-c2cccnc2)nc1C
MIC90 (Staphylococcus aureus [13]): 4 µg/mL | MIC50 (Staphylococcus aureus [14]): 4 µg/mL (≈ 18.3 µM) | MIC50 (Staphylococcus aureus [15]): 2 µg/mL (≈ 9.16 µM)

COc1ccc(N/N=C2/S/C(=N\N=C3/C(=O)Nc4ccc(Br)cc43)N=C2C)cc1
MIC (Escherichia coli [11]): 1 µg/mL (≈ 2.12 µM) | MIC (Staphylococcus aureus [12]): 1 µg/mL

O=C(O)CCN(c1ccc(Nc2ccccc2)cc1)c1nc(-c2ccc(Cl)cc2)cs1
MIC (Staphylococcus aureus [16]): 1 µg/mL (≈ 2.22 µM)

O=C1CSC(c2ccc([N+](=O)[O-])cc2)N1c1nc2ccc(OC(F)(F)F)cc2s1 (configuration not stated)
MBC (Staphylococcus aureus [3]): 120 µg/mL (≈ 272 µM) | MIC (Staphylococcus aureus [4]): 250 µg/mL (≈ 566 µM)

CCn1cc(-c2csc(N)n2)c(=O)c2cc(F)c(N3CCN(Cc4ccc(Cl)cc4)CC3)cc21
MIC (Staphylococcus aureus [17]): 8 µg/mL

O=C1CSC(c2ccc(F)cc2)N1c1nc2ccc(OC(F)(F)F)cc2s1 (configuration not stated)
MBC (Staphylococcus aureus [3]): 120 µg/mL (≈ 290 µM) | MIC (Staphylococcus aureus [4]): 250 µg/mL (≈ 603 µM)

O=C1CSC(c2cccc(Cl)c2Cl)N1c1nc2ccc(OC(F)(F)F)cc2s1 (configuration not stated)
MBC (Staphylococcus aureus [3]): 120 µg/mL (≈ 258 µM) | MIC (Staphylococcus aureus [4]): 250 µg/mL (≈ 537 µM)

CCOC1=NC(=N/N=C2\C(=O)Nc3ccc(Br)cc32)/S/C1=N/Nc1ccc([N+](=O)[O-])cc1
Activity (Escherichia coli [10]): 90% | MIC (Escherichia coli [11]): 8 µg/mL (≈ 15.5 µM) | MIC (Staphylococcus aureus [12]): 8 µg/mL

O=C(O)CCN(c1ccc(Nc2ccccc2)cc1)c1nc(-c2ccc(F)cc2)cs1
MIC (Staphylococcus aureus [16]): 1 µg/mL (≈ 2.31 µM)

CCOc1ccc2nc(N3C(=O)CSC3c3ccc(OC)cc3)sc2c1 (configuration not stated)
MIC (Staphylococcus aureus [18]): 90 µg/mL (≈ 233 µM)

O=C(/C(=C/c1ccccc1Cl)n1cnc2cc(Cl)ccc2c1=O)c1nccs1
MIC (Staphylococcus aureus [19]): 2 µg/mL

O=C(O)c1cn(C2CC2)c2cc(N3CCN(C(=O)CN4C(=O)S/C(=C\c5ccccc5)C4=O)CC3)c(F)cc2c1=O
MIC (Staphylococcus aureus [6]): 2.88 µg/mL (≈ 4.99 µM)

O=C(O)c1cn(C2CC2)c2cc(N3CCN(C(=O)CN4C(=O)S/C(=C\c5ccoc5)C4=O)CC3)c(F)cc2c1=O
MIC (Staphylococcus aureus [6]): 2.88 µg/mL (≈ 5.08 µM)

O=C1CSC(c2ccc([N+](=O)[O-])cc2)N1c1nc2c(Cl)cccc2s1 (configuration not stated)
MIC (Staphylococcus aureus [18]): 90 µg/mL (≈ 230 µM)

CCCCCNc1ccc(S(=O)(=O)CC(=O)c2nccs2)cc1
MIC (Staphylococcus aureus [20]): 1 µg/mL (≈ 2.84 µM)

O=S(=O)(c1ccc2nc3s/c(=N/N=C\c4cccs4)n(-c4ccc(Cl)cc4)c3nc2c1)N1CCOCC1
IC50 (DNA gyrase): 10.4 µM | MIC (Staphylococcus aureus [21]): 1.25 µg/mL (≈ 2.19 µM)
